Data from ChEMBL document CHEMBL3585290, “Synthesis and biological evaluation of novel bivalent -carbolines as potential antitumor agents” (Medchemcomm, 2014).

Legend:
[1] = test system: A-375; experiment: Cytotoxicity against human A375 cells after 48 hrs by MTT assay; type: functional, cell-based; settings: A-375, 48 h
[2] = test system: KB; experiment: Cytotoxicity against human KB cells after 48 hrs by MTT assay; type: functional, cell-based
[3] = test system: Lewis lung carcinoma cell line; experiment: Antitumor activity against mouse LLC cells implanted in mouse assessed as tumor growth inhibition at 212.1 umol/kg, ip qd administered for 7 days starting 24 hrs post tumor implantation measured after day 21 relative to control; type: functional; settings: read-out: TGI
[4] = Cytotoxicity against human BGC823 cells after 48 hrs by MTT assay; type: functional, cell-based; settings: BGC-823, 48 h
[5] = test system: SK-OV-3; experiment: Cytotoxicity against human SKOV3 cells after 48 hrs by MTT assay; type: functional, cell-based; settings: SK-OV-3, 48 h
[6] = test system: 769-P; experiment: Cytotoxicity against human 769-P cells after 48 hrs by MTT assay; type: functional, cell-based
[7] = test system: CT26; experiment: Antitumor activity against mouse CT26 cells implanted in mouse assessed as tumor growth inhibition at 212.1 umol/kg, ip qd administered for 7 days starting 24 hrs post tumor implantation measured after day 21 relative to control; type: functional; settings: read-out: TGI
[8] = Acute toxicity in ip dosed C57BL/6 mouse measured for 14 days; type: organism-based; settings: in vivo
[9] = test system: CT26; experiment: animal or person; settings: Mus musculus, CT26, ip, read-out: TGI
Description: Antitumor activity against mouse CT26 cells implanted in mouse assessed as tumor growth inhibition at 114.9 umol/kg, ip qd administered for 7 days starting 24 hrs post tumor implantation measured after day 21 relative to control

[10] = test system: Lewis lung carcinoma cell line; experiment: animal or person; settings: Mus musculus, ip, read-out: TGI
Description: Antitumor activity against mouse LLC cells implanted in mouse assessed as tumor growth inhibition at 114.9 umol/kg, ip qd administered for 7 days starting 24 hrs post tumor implantation measured after day 21 relative to control

Row | Structure (SMILES) | IC50 [1] [µM] | IC50 [2] [µM] | inhibition in vivo at 212.1 µmol/kg [3] [%] | IC50 [4] [µM] | IC50 [5] [µM] | IC50 [6] [µM] | inhibition in vivo at 212.1 µmol/kg [7] [%] | LD50 at 336 h [8] [µmol/kg] | inhibition in vivo at 114.9 µmol/kg [9] [%] | inhibition in vivo at 114.9 µmol/kg [10] [%]
1 | O=C(O)c1cc2c3ccccc3n(CCCc3ccccc3)c2cn1 | 67.6 | 86.4 | 40.3 | 36.7 | > 200 | 56.8 | 20.3 | 1090 | – | –
2 | O=P1(N(CCCl)CCCl)NCCCO1 (stereo not given) [CYCLOPHOSPHAMIDE ANHYDROUS] | – | – | – | – | – | – | – | – | 87.6 | 88.1
